According to paper PMC4092069, “Structural and Functional Characterization of DUF1471 Domains of Salmonella Proteins SrfN, YdgH/SssB, and YahO” (PLoS ONE, 2014):
Counter-ions that a name gives are not always drawn.

Columns and labels:
SrfN [1] = target: T1, SrfN (Salmonella enterica, UniProt Q7CR88); test: 2-D 1H-15N HSQC NMR titration, chemical shift perturbation; format: binding
T1 construct: gene STM0082; full-length synthetic gene in pGS-21a, C-terminal 6xHis tag kept, signal peptide (1-21) cleaved in E. coli, mature residues 22-96; 15N or 13C,15N labelled

SrfN [2] = target: T1, SrfN; test: as above; format: binding; details: 0.5 mM SrfN monomer, oxyanion site, weak
SEC-MALS = target: the molecule itself; test: SEC-MALS

**Q.** `O=S(=O)(O)OC[C@H]1O[C@@](COS(=O)(=O)O)(O[C@H]2O[C@H](COS(=O)(=O)O)[C@@H](OS(=O)(=O)O)[C@H](OS(=O)(=O)O)[C@H]2OS(=O)(=O)O)[C@@H](OS(=O)(=O)O)[C@@H]1OS(=O)(=O)O` [sucrose octasulfate] was tested. Which Kd (SrfN [1]) did it give?
**A.** < 500 µM

**Q.** `O=C(O)C1=C[C@H](O)[C@@H](OS(=O)(=O)O)[C@H](O[C@H]2[C@H](O)[C@@H](NS(=O)(=O)O)C(O)O[C@@H]2COS(=O)(=O)O)O1` (stereo partly drawn) [heparin disaccharide, α-ΔUA-2S-[1→4]-GlcNS-6S] was tested. Which “2-D 1H-15N HSQC NMR titration, chemical shift perturbation” value (SrfN [2]; 5 mM disaccharide (20:1 to dimer)) did it give?
**A.** The interaction with heparin disaccharide appears to be somewhat weaker

**Q.** For `O=S(=O)(O)O` [sodium sulfate], which “2-D 1H-15N HSQC NMR titration, chemical shift perturbation” value (SrfN [2]; neutral pH, 100-200 mM Na2SO4 (400-800:1 to dimer)) is on record?
**A.** a region on the surface which interacts only weakly with sulfate ion at neutral pH

B1: SrfN (STM0082) of Salmonella enterica serovar Typhimurium LT2, processed form lacking the 21 N-termi (natural protein)
chain: AEQVSKQEISHFKLVKVGTINVSQSGGQISSPSDLREKLSELADAKGGKYYHIIAAREHGPNFEAVAEVYNDATK
modifications: uniform 15N or 13C,15N isotope labelling in the NMR samples
notes: also called StR109; SrfN dimer
**Q.** B1 was tested. Which “stoichiometry N” value (SEC-MALS) did it give?
**A.** 2
